According to patent US10883994B2, “Identification of cancer stem cells markers and use of same for diagnosis and treatment” (Tel HaShomer Medical Research Infrastructure and Services …, priority 2014, dated 2021):
Entries after “also recorded” stand apart in the source; their conditions may differ.

Columns and labels:
MRT cells (ATRT cells) [1] = assay: Cell migration assay (scrape); type: cell-based, human; conditions: 100 μM BAPN, 48 h
Experimental: Cell migration assay: Cells were grown overnight, after which the medium was changed and supplemented with 100 μM BAPN. After 48 hours, a scrape was made through the confluent monolayers with a plastic 1 ml pipette tip. Treated and control cells were then photographed at identical time points (24 and 48 hours).

[2] = system: Wilms' tumor (WT) Xn cells; assay: MTS cell viability assay on Wilms' tumor Xn cells; type: cell-based, human; conditions: Wilms' tumor Xn cells serially propagated in mice
Experimental: (§1) MTS—cell viability assay: 5×10^3 cells were plated in triplicates and grown in 96-well plates over-night. The following day the medium was changed and supplemented with various concentrations of BAPN and the cells were further incubated for 48 h. Cell proliferation was measured using CellTiter 96 Aqueous One Solution Cell Proliferation Assay (Promega) according to the manufacturer's instructions. Briefly, the cells were incubated with the MTS solution for 3 hours at 37° C. and absorbance at 492 nm was determined using a microplate reader. Three independent experiments were carried out.

MRT cells (ATRT cells) [3] = assay: Morphology of MRT/ATRT cells after BAPN treatment; type: cell-based, human
[4] = molecular target: T1, LOX (lysyl oxidase) in ATRT cells (Homo sapiens, UniProt P28300); assay: LOX activity assay (Amplex Red fluorescence); type: biochemical; conditions: 100 μM BAPN
T1 construct: endogenous in cells
T1 sequence (P28300 169-417): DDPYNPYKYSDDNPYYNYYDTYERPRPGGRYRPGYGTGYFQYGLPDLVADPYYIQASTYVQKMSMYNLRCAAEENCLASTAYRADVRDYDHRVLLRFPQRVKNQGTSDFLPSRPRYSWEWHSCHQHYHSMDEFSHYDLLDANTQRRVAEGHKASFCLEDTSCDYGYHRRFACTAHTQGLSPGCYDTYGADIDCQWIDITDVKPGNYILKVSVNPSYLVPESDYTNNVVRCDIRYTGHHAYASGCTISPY
Experimental: LOX Activity Assays: The LOX enzyme activity was measured using the Amplex Red fluorescence assay (AAA Bioquest, 15255), as previously described (15843371). The assay reaction mixture consisted of 50 mM sodium borate (pH 8.2), 1.2 M urea, 50 µM Amplex Red, 0.1 units/ml horseradish peroxidase, and 10 mM 1,5-diaminopentane (cadaverine) substrate. The protein samples were added to the reaction mix, in the presence or absence of 100 μM BAPN, which was then incubated at 37° C. for 30 minutes. The fluorescent product was measured at 590 nm using an […] microplate reader.

[5] = system: ATRT Xn cells (MRT cells); assay: MTS cell viability assay on MRT/ATRT Xn cells; type: cell-based, human; conditions: 100 μM BAPN, 48 h
Experimental: as §1

[6] = intermediate Xn passage (P10) MRT cells

N#CCCN [BAPN, β-Aminopropionitrile]
ATRT cell migration capacity compared to un-treated cells (MRT cells (ATRT cells) [1]; P2 cells): significant inhibited
MRT cell migration capacity compared to un-treated cells (MRT cells (ATRT cells) [1]; [6]): significant inhibited; also recorded: significantly inhibited
effect on WT cell proliferation [2]: no effect on WT cell proliferation
morphological changes on ATRT cells (MRT cells (ATRT cells) [3]; P2 cells): nuclear condensation and cell swallowing
morphological changes on MRT cells (MRT cells (ATRT cells) [3]; [6]): nuclear condensation and cell swallowing
LOX activity (in words) [4]: significantly inhibited LOX activity
inhibition of LOX activity ([4]; P3 cells): 81%
inhibition of LOX activity ([4]; P10 cells): 63%
proliferation in comparison to UT cells (MTS cell viability) ([5]; P2 Xn cells): 47%
proliferation (MTS cell viability) ([5]; intermediate Xn passage (P10) cells, three different experiments): significantly reduced proliferation
